Measurements taken from patent US20100130598A1, “METHODS FOR INDUCING PROGRAMMED CELL DEATH” (Novogen Research Pty Ltd., priority 2008, published 2010).

Legend:
Type in all cases: cell-based, human
caspases-3/7, -8, and -9 = assay: Caspase-3/7, -8, and -9 activity assay (Caspase-Glo) on cell lysates; settings: EOC cells, 24 h; increasing concentrations of Compound 1 or 2 μM Paclitaxel
Text: Protein preparation and cellular fractionation. After drug treatment, protein was extracted and measured as previously described (Alvero et al, 2006). For separation of the cytoplasmic and mitochondrial fractions, cell pellets were processed using the ApoAlert™ Cell Fractionation Kit (BD Biosciences, San Jose, Calif.) according to the manufacturer's instructions. For separation of the cytoplasmic and nuclear fractions, pellets were processed using NE-PER Nuclear and Cytoplasmic Extraction (Pierce Biotechnology, Inc., Rockford, Ill.). Caspase-3/7, -8, and -9 activity assay. Ten μg of protein in a 50 μl total volume was mixed with 50 μl of equilibrated Caspase-Glo^10 3/7, 8, or 9 reagents (Promega). After incubating at room temperature for 1 h, luminescence was measured using TD 20/20 Luminometer (Turner Designs, Sunnyvale, Calif.). Blank values were subtracted and fold-increase in activity was determined in relation to the control non-treatment.

EOC cells = assay: Mitochondrial depolarization using JC-1 (flow cytometry); settings: 10 pg/ml (as printed, FIG. 5 legend)
Text: Assay of mitochondrial depolarization using JC-1. After treatment, cells were trypsinized and stained with JC-1 dye using the Mitocapture™ mitochondrial apoptosis detection kit (BioVision Research Products, Mountain View, Calif.) according to manufacturer's instruction. Data was acquired using BD LSR II System and analyzed using BD FACSDiva Software™.

HPAC cells [1] = assay: Apoptosis/necrosis by FACS (Annexin-V-FITC/PI), HPAC
Procedure: (§1) Cells. Human pancreatic cell lines HPAC, MIAPaCa-2 and PANC-1 were obtained from the ATCC. (Manassas, Va.). The cells were maintained in DMEM media with Gln and high glucose (Mediatech, Manassas, Va.) with 10% fetal bovine serum (FBS, HyClone, Logan, Utah) and pencillin/streptomycin.
(§2) FACS Analysis. Apoptosis was measured by FACS analysis using Annexin-V-FITC and propidium iodide (PI) (Biovision, Mountain View, Calif.) as probes (Ahn et al., 2003). Mitochondrial membrane potential was measured by FACS analysis using JC-1 (Biovision) as a probe (Ahn et al., 2003). Cell cycle was analyzed on ethanol-fixed, RNaseA-treated cells staining with PI. In each spectrum, 10,000 gated events were recorded and analyzed with a FACSCalibur (BD Biosciences. San Jose, Calif.). All experiments were done in triplicate, error bars represent one standard deviation. Caspase inhibitor I (zVAD-fmk) was obtained from Calbiochem.

[2] = tested on: Caspase 2, 3 and 9 in HPAC cells; assay: In situ caspase activity by flow cytometry, HPAC
Procedure: as §1
[…] The cells were incubated with caspase substrates for 1 h at 37° C., 5% CO2, then probed with Annexin-V-Cy5 and sytox blue. Caspase +ve cells were gated as shown in the histograms and these cells are indicated on the Annexin-V-Cy5/sytox blue spectra as blue cells. In situ caspase activity was assayed using fluorescent substrates. For Caspase 2, FITC-VDVAD-fmk (Biovision K182-100), for Caspase 3, FITC-DEVD-fmk (K183-100) and for Caspase 9, FITC-LEHD-fmk (K199-100) was used. These substrates bind irreversibly to their respective activated caspases, and caspase activation was quantitated by flow cytometry. After 1 hr incubation at 37° C. in 5% CO2, the cells were washed with DPBS containing 5% FBS and resuspended in Annexin-V binding buffer containing Annexin-V-Cy5 (Biovision K103-3) and sytox blue (Invitrogen), a dye that binds necrotic cells. Caspase activation, apoptosis and necrosis were measured simultaneously using a violet, blue and red laser in a BD LSRII flow cytometer.

pancreatic cancer cells = assay: Simultaneous caspase activation, apoptosis and necrosis (Annexin-V-Cy5/sytox blue) by flow cytometry; settings: Compound 10-treated, 10 μM, 48 hrs
Procedure: as §1
Caspase Activity After 48 h treatment with 10 μM Compound 10, HPAC, MIAPaCa-2 and PANC-1 cells were harvested by trypsinization and resuspended in DMEM media with 10% FBS. The cells were incubated with caspase substrates for 1 h at 37° C., 5% CO2, then probed with Annexin-V-Cy5 and sytox blue. Caspase +ve cells were gated as shown in the histograms and these cells are indicated on the Annexin-V-Cy5/sytox blue spectra as blue cells. In situ caspase activity was assayed using fluorescent substrates. For Caspase 2, FITC-VDVAD-fmk (Biovision K182-100), for Caspase 3, FITC-DEVD-fmk (K183-100) and for Caspase 9, FITC-LEHD-fmk (K199-100) was used. These substrates bind irreversibly to their respective activated caspases, and caspase activation was quantitated by flow cytometry. After 1 hr incubation at 37° C. in 5% CO2, the cells were washed with DPBS containing 5% FBS and resuspended in Annexin-V binding buffer containing Annexin-V-Cy5 (Biovision K103-3) and sytox blue (Invitrogen), a dye that binds necrotic cells. Caspase activation, apoptosis and necrosis were measured simultaneously using a violet, blue and red laser in a BD LSRII flow cytometer.

HPAC cells [3] = assay: Mitochondrial membrane potential by FACS (JC-1), HPAC; settings: dose-dependent, 48 hrs of treatment
Procedure: as §1, §2

[4] = dose-escalating, 48 hr exposure

Row | Compound | caspase-3/7, -8, and -9 activities (caspases-3/7, -8, and -9) | cells having depolarized mitochondria (EOC cells; 1 h) [%] | cells having depolarized mitochondria (EOC cells; 4 h) [%] | effect of zVAD-fmk pre-treatment on induced apoptosis (HPAC cells [1]; 10 μM zVAD-fmk 1 hr before 10 μM Compound 10, 42-46 h) | effect of zVAD-fmk pre-treatment on induced necrosis (HPAC cells [1]; 10 μM zVAD-fmk 1 hr pre-treatment, 10 μM Compound 10 or Fas-activating antibody) | apoptosis (HPAC cells [1]; [4]) | necrosis (HPAC cells [1]; [4]) | caspase 2 and caspase 9 induction ([2]; 10 μM, after 48 hrs) | caspase-3 induction ([2]; 10 μM, after 48 hrs) | caspase 9 activation ([2]; 30 μM, data not shown) | caspase positive cells that bound both Annexin-V-Cy5 and sytox blue (later stages of apoptosis) (pancreatic cancer cells) | caspase positive cells that were Annexin-V positive and sytox blue negative (early stages of apoptosis) (pancreatic cancer cells) | caspase positive cells that were sytox blue positive and Annexin-V negative (necrosis) (pancreatic cancer cells) | mitochondrial depolarization (HPAC cells [3])
1 | COc1ccc(C2c3ccc(O)c(C)c3OCC2c2ccc(O)cc2)cc1 (centres unmarked) [Compound 1, 3-(4-hydroxyphenyl)-4-(4-methoxyphenyl)-8-methylchroman-7-ol] | no changes | 30 | 50 | – | – | – | – | – | – | – | – | – | – | –
2 | COc1ccc(C2c3ccc(O)cc3OCC2c2ccc(O)cc2)cc1 (centres unmarked) [Compound 10, 3-(4-hydroxyphenyl)-4-(4-methoxyphenyl)chroman-7-ol] | – | – | – | did not inhibit | inhibited | induced apoptosis in a dose-dependent fashion | Very little necrosis | neither caspase 2 or caspase 9 were induced | modestly induced | activated | Approximately 30% | Approximately 60% | Less than 5% | depolarized
